PMC12441834, “Highly Potent and Subtype-Selective Sperm-Specific Potassium Channel SLO3 Inhibitors Display High Tissue Exposure in the Murine Female Reproductive Tract” (ACS Pharmacology & Translational Science, 2025)
Like-named read-outs stand apart in the source and are kept apart here.

Legend:
CYP3A4 = CYP3A4 (Homo sapiens, UniProt P08684); test: CYP450 inhibition; type: in vitro ADME; details: read-out: CYP450 Inhibition, 3A4
[1] = system: human sperm hyperactivated motility; test: Human sperm motility by CASA; type: cell-based; details: for inhibition of human sperm hyperactivated motility, incubation: 10 μM during 2 h in capacitation media; for inhibition of human sperm hyperactivated motility, acute / inhibition at 10 µM: 10 μM for 1 min after 2 h capacitation; for effect on progressive motility of human sperm / effect on total motility of human sperm: 10 μM, acute; for inhibition at 10 µM: Homo sapiens, Sperm, read-out: inhibition of human sperm hyperactivated motility, acute
Protocol: Human sperm samples were obtained by masturbation from deidentified patients after 3 to 5 days of abstinence. The Washington University Fertility and Reproductive Medicine Center confirmed that they met normal semen parameters according to the World Health Organization (≥15 million sperm per mL, ≥40% total motility, ≥32% progressive motility). Samples were allowed to liquefy for 1 h at room temperature. Sperm were purified by the swim-up method as previously described. , Briefly, within 2 h of production, sperm were allowed to swim up in noncommercial human tubular fluid medium (HTF; 98 mM NaCl, 4.7 mM KCl, 0.4 mM KH2PO4, 2 mM CaCl2, 0.2 mM MgSO4, 20 mM HEPES, 3 mM glucose, 21 mM lactic acid, 0.3 mM sodium pyruvate, pH adjusted to 7.4 with NaOH, 285 mmol/kg osmolarity measured with a VAPRO Vapor Pressure Osmometer 5600, ELITechGroup, Belgium) for 1 h at 37 °C without CO2.
Human sperm collected by swim-up were incubated in capacitating media (HTF + 5 mg/mL of BSA + 25 mM NaHCO3 for 2 h). After this incubation hyperactivated motility was measured by computer-assisted sperm analysis (CASA) as previously described. Briefly, 3 μL of sperm suspension was loaded in a 20-μm Leja standard count four-chamber slide. Motility was measured with a HTR-CEROS II v.1.7 (Hamilton-Thorne Research). Sperm were classified as hyperactivated if they met the following criteria: curvilinear velocity (VCL) > 150 μm/s, lateral head displacement (ALH) > 7.0 μm, and linearity coefficient (LIN) < 50%. For acute inhibition experiments, 10 μM of our compound of interest was added for 1 min prior to recording motility. For inhibitor incubation experiments, the compound of interest or DMSO was added during the 2 h incubation in capacitating media.

[2] = Distribution ratio female reproductive organs versus plasma after IV dosing; type: in vivo; details: C57Bl/6, mouse, female mice, 1 mg/kg IV; for Kp at 0.25 h: reproductive organs / plasma
Protocol: Samples were analyzed via electrospray ionization (ESI) LC-MS/MS on an AB Sciex 4500 (Foster City, CA) triple-quadrupole instrument that was coupled with an Agilent 1290 Infinity Binary Pump and multisampler (Santa Clara, CA) and concentrations (ng/mL or ng/g) were determined using a matrix-matched 10-point standard curve and then converted to nM concentrations. Quantitation of compounds was performed via AB Sciex Multiquant software using the raw analyte:IS peak area ratios. The typical detection range was 0.5 ng/mL to ≥5000 ng/mL utilizing a quadratic equation regression with 1/x² weighting. Correction for dilution of all tissue samples was performed postquantitation. The corrections for dilution in the extraction buffer employed correction factors specific to each tissue weight.
In-life phase–Compounds were formulated in PEG400:DMSO (4:1, v/v) at a concentration of 1 mg/mL and administered as a single 1 mg/kg dose (1 mL/kg) to female C57Bl/6 mice (n = 2–4; 30 g body weight) via intravenous (i.v.) injection. Blood samples were collected serially from a surgically implanted carotid artery catheter in each animal over multiple postadministration time points (0.25, 0.5, 1, 3, 6, and 24 h) into chilled, K2EDTA anticoagulant-fortified tubes and immediately placed on wet ice. The blood samples were stored at −80 °C until analysis by LC-MS/MS.
At the same time points, female reproductive organs were obtained by rapid dissection, rinsed with PBS, pooled by lots of 2 and immediately frozen in individual tissue collection boxes (dry ice). All tissues and blood samples were stored at −80 °C until analysis by LC-MS/MS.

Adrenergic α1A = Adrenergic α1A (Homo sapiens, UniProt P35348); test: LeadProfilingScreen radioligand binding
Adrenergic α1B = Adrenergic α1B (Homo sapiens, UniProt P35368); test: LeadProfilingScreen radioligand binding
Cannabinoid CB1 = Cannabinoid CB1 (Homo sapiens, UniProt P21554); test: LeadProfilingScreen radioligand binding
Endothelin ETA = Endothelin ETA (Homo sapiens, UniProt P25101); test: LeadProfilingScreen radioligand binding
Muscarinic M3 = Muscarinic M3 (Homo sapiens, UniProt P20309); test: LeadProfilingScreen radioligand binding
Neuropeptide Y Y1 = Neuropeptide Y Y1 (Homo sapiens, UniProt P25929); test: LeadProfilingScreen radioligand binding
Prostanoid EP4 = Prostanoid EP4 (Homo sapiens, UniProt P35408); test: LeadProfilingScreen radioligand binding
Sigma σ1 = Sigma σ1 (Homo sapiens, UniProt Q99720); test: LeadProfilingScreen radioligand binding
[3] = female reproductive organs (pooled), pooled organs, read-out: Reproductive Organs concentration
[4] = plasma, read-out: Plasma concentration

Sequence of Cannabinoid CB1 (P21554 whole entry): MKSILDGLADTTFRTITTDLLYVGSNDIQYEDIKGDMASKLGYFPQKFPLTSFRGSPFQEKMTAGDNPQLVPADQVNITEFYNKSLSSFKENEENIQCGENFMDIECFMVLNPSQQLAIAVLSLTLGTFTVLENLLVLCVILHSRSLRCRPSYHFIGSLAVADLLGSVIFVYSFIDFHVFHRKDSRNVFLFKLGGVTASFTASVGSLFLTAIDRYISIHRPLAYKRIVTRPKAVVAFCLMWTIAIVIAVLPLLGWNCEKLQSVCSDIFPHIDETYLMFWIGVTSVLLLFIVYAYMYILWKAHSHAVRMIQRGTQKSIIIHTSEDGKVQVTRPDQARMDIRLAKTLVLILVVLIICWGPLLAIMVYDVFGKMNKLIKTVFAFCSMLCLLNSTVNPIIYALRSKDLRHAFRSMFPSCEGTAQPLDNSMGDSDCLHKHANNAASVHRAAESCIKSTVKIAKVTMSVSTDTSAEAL
Sequence of CYP3A4 (P08684 whole entry, species assumed): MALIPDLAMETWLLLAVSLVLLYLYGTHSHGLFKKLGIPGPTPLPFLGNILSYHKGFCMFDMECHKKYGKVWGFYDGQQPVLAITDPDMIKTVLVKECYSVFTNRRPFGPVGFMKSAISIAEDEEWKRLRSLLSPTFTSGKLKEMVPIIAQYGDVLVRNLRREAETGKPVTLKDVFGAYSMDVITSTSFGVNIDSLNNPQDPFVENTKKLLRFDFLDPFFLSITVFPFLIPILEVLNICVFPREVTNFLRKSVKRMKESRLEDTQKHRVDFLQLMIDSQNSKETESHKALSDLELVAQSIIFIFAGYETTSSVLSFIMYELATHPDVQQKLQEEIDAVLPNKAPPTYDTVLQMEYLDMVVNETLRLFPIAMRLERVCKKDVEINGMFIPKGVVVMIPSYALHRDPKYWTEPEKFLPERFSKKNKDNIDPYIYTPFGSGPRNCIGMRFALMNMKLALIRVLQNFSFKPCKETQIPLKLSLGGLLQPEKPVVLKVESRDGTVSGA
Sequence of Neuropeptide Y Y1 (P25929 whole entry): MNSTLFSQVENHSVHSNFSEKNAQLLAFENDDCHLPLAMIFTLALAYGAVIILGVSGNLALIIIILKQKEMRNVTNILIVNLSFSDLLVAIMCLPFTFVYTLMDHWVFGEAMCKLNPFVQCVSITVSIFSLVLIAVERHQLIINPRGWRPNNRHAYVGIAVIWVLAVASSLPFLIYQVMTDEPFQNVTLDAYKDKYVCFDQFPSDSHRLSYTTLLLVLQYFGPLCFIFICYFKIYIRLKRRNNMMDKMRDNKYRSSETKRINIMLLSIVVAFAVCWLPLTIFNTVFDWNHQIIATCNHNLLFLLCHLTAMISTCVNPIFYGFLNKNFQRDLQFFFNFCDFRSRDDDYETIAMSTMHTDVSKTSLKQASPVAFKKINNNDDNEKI
Sequence of Prostanoid EP4 (P35408 whole entry): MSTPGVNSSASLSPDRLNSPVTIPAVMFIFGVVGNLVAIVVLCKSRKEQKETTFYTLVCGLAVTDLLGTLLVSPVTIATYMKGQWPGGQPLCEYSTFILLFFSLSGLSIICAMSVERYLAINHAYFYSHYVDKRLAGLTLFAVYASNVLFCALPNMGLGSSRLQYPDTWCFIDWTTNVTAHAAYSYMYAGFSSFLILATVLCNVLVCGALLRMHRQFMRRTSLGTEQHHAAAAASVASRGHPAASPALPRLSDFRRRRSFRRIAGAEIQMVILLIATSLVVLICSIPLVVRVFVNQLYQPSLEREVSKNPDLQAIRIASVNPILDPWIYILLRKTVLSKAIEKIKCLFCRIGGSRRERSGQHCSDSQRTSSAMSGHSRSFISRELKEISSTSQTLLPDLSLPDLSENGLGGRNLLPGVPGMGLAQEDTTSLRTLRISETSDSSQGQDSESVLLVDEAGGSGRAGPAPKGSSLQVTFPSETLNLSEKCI
Sequence of Endothelin ETA (P25101 21-427): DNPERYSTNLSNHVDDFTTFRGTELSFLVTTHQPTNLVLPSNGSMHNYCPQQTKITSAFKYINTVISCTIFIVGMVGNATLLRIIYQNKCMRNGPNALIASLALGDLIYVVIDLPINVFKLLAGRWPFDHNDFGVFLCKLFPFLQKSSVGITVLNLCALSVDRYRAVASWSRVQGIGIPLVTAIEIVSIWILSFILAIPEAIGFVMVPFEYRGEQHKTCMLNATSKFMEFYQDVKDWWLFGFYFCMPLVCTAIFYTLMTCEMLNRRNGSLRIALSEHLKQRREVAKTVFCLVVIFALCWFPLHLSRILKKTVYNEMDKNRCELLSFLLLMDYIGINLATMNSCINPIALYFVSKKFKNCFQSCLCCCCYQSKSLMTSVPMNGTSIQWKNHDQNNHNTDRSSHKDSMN
Sequence of Adrenergic α1B (P35368 whole entry): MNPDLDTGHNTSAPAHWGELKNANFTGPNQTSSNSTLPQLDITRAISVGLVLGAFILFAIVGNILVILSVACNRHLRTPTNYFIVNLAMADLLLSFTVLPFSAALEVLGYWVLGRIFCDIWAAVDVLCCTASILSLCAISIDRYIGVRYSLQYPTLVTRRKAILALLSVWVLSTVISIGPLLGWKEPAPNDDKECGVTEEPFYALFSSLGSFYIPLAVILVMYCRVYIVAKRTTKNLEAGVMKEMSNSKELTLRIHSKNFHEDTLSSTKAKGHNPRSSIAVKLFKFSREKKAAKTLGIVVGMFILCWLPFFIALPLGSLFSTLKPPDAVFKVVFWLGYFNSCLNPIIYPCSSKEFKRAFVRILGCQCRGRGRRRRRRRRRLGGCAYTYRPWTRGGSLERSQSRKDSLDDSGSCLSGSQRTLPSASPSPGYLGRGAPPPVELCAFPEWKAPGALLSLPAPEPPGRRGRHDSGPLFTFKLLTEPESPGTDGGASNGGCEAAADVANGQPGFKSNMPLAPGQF
Sequence of Sigma σ1 (Q99720 whole entry): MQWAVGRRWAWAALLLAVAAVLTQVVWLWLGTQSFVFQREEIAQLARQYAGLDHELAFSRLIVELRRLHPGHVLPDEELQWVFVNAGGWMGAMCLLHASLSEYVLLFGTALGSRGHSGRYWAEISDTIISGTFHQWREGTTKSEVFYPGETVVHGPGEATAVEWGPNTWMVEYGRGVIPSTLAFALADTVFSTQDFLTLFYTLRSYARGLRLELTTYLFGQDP
Sequence of Adrenergic α1A (P35348 whole entry): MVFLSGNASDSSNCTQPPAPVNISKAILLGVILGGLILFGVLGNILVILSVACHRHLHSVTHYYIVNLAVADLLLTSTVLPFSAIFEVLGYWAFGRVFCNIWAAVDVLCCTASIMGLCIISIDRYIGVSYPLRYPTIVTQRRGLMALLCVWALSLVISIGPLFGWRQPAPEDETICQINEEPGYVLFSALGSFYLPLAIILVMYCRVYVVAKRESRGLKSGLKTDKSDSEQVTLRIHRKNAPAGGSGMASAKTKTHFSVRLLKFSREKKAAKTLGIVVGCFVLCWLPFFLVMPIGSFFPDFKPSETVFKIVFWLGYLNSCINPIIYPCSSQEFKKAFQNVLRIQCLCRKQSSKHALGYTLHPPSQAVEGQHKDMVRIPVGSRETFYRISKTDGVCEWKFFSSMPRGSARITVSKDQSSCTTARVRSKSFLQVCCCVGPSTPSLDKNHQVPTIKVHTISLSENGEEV
Sequence of Muscarinic M3 (P20309 whole entry): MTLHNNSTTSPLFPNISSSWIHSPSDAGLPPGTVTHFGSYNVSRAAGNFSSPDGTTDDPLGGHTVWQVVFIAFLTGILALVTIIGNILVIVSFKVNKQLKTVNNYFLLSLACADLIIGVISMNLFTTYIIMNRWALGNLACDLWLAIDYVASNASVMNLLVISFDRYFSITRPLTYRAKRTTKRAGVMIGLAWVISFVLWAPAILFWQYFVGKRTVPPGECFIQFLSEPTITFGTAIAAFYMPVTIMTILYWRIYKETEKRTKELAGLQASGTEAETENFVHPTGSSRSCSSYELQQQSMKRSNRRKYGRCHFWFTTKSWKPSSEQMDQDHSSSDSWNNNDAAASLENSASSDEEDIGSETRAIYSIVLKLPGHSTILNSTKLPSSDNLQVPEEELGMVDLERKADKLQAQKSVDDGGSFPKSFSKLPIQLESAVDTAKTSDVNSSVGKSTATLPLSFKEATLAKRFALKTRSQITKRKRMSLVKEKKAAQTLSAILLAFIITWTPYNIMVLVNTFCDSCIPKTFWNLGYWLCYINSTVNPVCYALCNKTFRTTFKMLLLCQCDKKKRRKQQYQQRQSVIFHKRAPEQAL

| Structure (SMILES) | IC50 (CYP3A4) [µM] | inhibition of human sperm hyperactivated motility, incubation [1] [%] | inhibition of human sperm hyperactivated motility, acute [1] [%] | effect on progressive motility of human sperm [1] | effect on total motility of human sperm [1] | inhibition at 10 µM [1] [%] | concentration at 0.25 h [2, 3] [ng/mL] | concentration at 0.25 h [2, 4] [ng/mL] | Kp at 0.25 h [2] | inhibition at 10 µM (Adrenergic α1A) [%] | inhibition at 10 µM (Adrenergic α1B) [%] | inhibition at 10 µM (Cannabinoid CB1) [%] | inhibition at 10 µM (Endothelin ETA) [%] | inhibition at 10 µM (Muscarinic M3) [%] | inhibition at 10 µM (Neuropeptide Y Y1) [%] | inhibition at 10 µM (Prostanoid EP4) [%] | inhibition at 10 µM (Sigma σ1) [%] |
| --- | --- | --- | --- | --- | --- | --- | --- | --- | --- | --- | --- | --- | --- | --- | --- | --- | --- |
| Cc1cc(Cl)cc2sc(O[C@H]3CCN(C(=O)CCCS(=O)(=O)c4cccc(Br)c4)C[C@H]3F)nc12 [VU6047606] | > 30 | 61 | > 70 | without changing | without changing | 71 | 56.6 | 121 | 0.47 | 4 | 12 | 27 | 5 | 13 | -16 | 23 | 62 |
| O=C(c1ccc(OCc2ccc(OC(F)(F)F)cc2)cc1)N1CCN(c2ccc(C(F)(F)F)cn2)CC1 [VU6032735] | > 30 | 50 | > 70 | without changing | without changing | 76 | 1070 | 85.3 | 12.7 | -1 | -5 | 32 | 9 | 7 | -1 | -2 | -3 |
